Experimental data as given in the NIST ThermoML archive (doi:10.1021/acs.jced.5b00242).

Experiment: xn = mol fraction of the nth substance listed
Conditions: 101 kPa, Liquid; for viscosity: Stabinger Viscometer; for mass density: Vibrating tube method

CCn1cc[n+](C)c1.O=C([O-])[C@@H]1CCCN1 [1-ethyl-3-methyl-1H-imidazolium L-prolinate] + CCn1cc[n+](C)c1.N#C[C-](C#N)C#N
Conditions | mass density, x2 = 0 [kg/m3] | mass density, x2 = 0.2501 [kg/m3] | mass density, x2 = 0.5002 [kg/m3] | mass density, x2 = 0.7501 [kg/m3] | viscosity, x2 = 0 [mPa·s] | viscosity, x2 = 0.2501 [mPa·s] | viscosity, x2 = 0.5002 [mPa·s] | viscosity, x2 = 0.7501 [mPa·s]
308.15 K | 1136.4 | 1121.8 | 1106.6 | 1090.4 | – | – | 73.15 | 25.29
313.15 K | 1133.2 | 1118.7 | 1103.3 | 1087 | 359.21 | 162.54 | 56.72 | 21
318.15 K | 1130.1 | 1115.5 | 1100.1 | 1083.7 | 256.92 | 120.81 | 44.93 | 17.68
323.15 K | 1127.1 | 1112.4 | 1096.8 | 1080.3 | 188.66 | 92 | 36.25 | 15.08
328.15 K | 1124 | 1109.3 | 1093.6 | 1077 | 141.76 | 71.61 | 29.73 | 13
333.15 K | 1121 | 1106.2 | 1090.4 | 1073.6 | 108.85 | 56.8 | 24.75 | 11.32
338.15 K | 1118 | 1103.1 | 1087.2 | 1070.3 | 85.12 | 45.83 | 20.87 | 9.95
343.15 K | 1115 | 1100 | 1084 | 1067 | 67.69 | 37.55 | 17.8 | 8.82
348.15 K | 1112 | 1096.9 | 1080.8 | 1063.8 | 54.73 | 31.2 | 15.35 | 7.87
353.15 K | 1109.1 | 1093.8 | 1077.7 | 1060.5 | 44.89 | 26.24 | 13.37 | 7.07
